In US11331364B2, “Use for JNK inhibitor molecules for treatment of various diseases” (Xigen Inflammation Ltd., priority 2014, dated 2022):
Entries after “also recorded” stand apart in the source; their conditions may differ. Square brackets hold non-standard residues; d marks the D form. Peptide text beside a SMILES is read from it.

How the values were obtained:
[1] = molecular target: hJNK3 (Homo sapiens, UniProt P53779); assay: hJNK3 | IC50; conditions: read-out: hJNK3 | IC50
[2] = tested on: THP1 differentiated macrophages; assay: LPS-induced cytokine release in PMA differentiated THP1 macrophages (ELISA); format: cell-based, human
Method: In the following the procedure will be set forth describing how the released amount of several human cytokines after ligand induced secretion from human cells (Blood, WBC, PBMC, purified primary lymphocytes, cell lines, . . . ) was measured.
The technique used is a Sandwich ELISA, which allows measuring the amount of antigen between two layers of antibodies (i.e. capture and detection antibody). The antigen to be measured must contain at least two antigenic sites capable of binding to antibody, since at least two antibodies act in the sandwich. Either monoclonal or polyclonal antibodies can be used as the capture and detection antibodies in Sandwich ELISA systems. Monoclonal antibodies recognize a single epitope that allows fine detection and quantification of small differences in antigen. A polyclonal is often used as the capture antibody to pull down as much of the antigen as possible.
The method may be used to determine the effect of the JNK inhibitors of the present invention in vitro/cell culture. At non toxic doses, compound efficacy is indicated by the decrease of the cytokine levels (the variation of optical density (absorbance at 450 nm)) as compared to non-treated samples and is monitored by ELISA. Results are express in ng/ml.
In the following the procedure will be set forth describing how cytokine production from human PMA differentiated THP1 cells challenged by LPS for 6 h was induced in order to test the ability of JNK inhibitors of the present invention, in particular of a JNK inhibitor with SEQ ID NO: 172, to reduce stimulation-induced cytokine release. THP1 cells were stimulated ex-vivo by different ligands for the readout of cytokine release. At non toxic doses, JNK inhibitor efficacy is indicated by the decrease of the cytokine levels as compared to non-treated samples and is monitored by ELISA. The toxicity of the compound are evaluated by the reduction of a tretazolium salt (MTS) to formazan, giving a purple colour.
The cells were counted. […]

[3] = tested on: human whole blood; assay: PHA-L-induced cytokine release in human whole blood, 3 days; format: cell-based; conditions: 1, 3, 10 μM, PHA-L 5 μg/mL
Method: FIG. 22 JNK inhibition and TNF-α release in human whole blood. The JNK inhibitor with SEQ ID NO: 172 was added at three different concentrations, namely 1, 3 and 10 μM 1 h before whole blood stimulation with PHA-L (5 μg/mL) for 3 days.
FIG. 23 JNK inhibition and IL-2 release in human whole blood. The JNK inhibitor with SEQ ID NO: 172 was added at three different concentrations, namely 1, 3 and 10 μM 1 h before whole blood stimulation with PHA-L (5 μg/mL) for 3 days.
Whole blood from human healthy volunteers was collected using a venipuncture connected to a pre-labeled vacuum tube containing sodium citrate. Tubes are gently mixed by inversion 7-8 times; and are then kept at RT until stimulation. 350 μl of RPMI+P/S were added into 1.2 ml-96-well plate. 10 times concentrated of SEQ ID NO: 172 was prepared in RPMI+P/S (50 μl per well). 50 μl was added into 1.2 ml-96 well plates. 50 μl of whole blood was then added in each well where either medium alone or JNK inhibitor has been previously added. Whole blood was incubated at 37° C., 5% CO2 for 60 min. 50 μl/well of ligands diluted in RPMI+P/S was prepared, corresponding to the final dilution 10 times concentrated. After 60 min of incubation, ligand was added; wells were then mixed by pipetting up and down the blood. […] Cytokine were then measured using standard Elisa kits. Results are expressed as pg/ml of supernatant of the measured cytokine.

Chain of hJNK3 (P53779 whole entry, looked up): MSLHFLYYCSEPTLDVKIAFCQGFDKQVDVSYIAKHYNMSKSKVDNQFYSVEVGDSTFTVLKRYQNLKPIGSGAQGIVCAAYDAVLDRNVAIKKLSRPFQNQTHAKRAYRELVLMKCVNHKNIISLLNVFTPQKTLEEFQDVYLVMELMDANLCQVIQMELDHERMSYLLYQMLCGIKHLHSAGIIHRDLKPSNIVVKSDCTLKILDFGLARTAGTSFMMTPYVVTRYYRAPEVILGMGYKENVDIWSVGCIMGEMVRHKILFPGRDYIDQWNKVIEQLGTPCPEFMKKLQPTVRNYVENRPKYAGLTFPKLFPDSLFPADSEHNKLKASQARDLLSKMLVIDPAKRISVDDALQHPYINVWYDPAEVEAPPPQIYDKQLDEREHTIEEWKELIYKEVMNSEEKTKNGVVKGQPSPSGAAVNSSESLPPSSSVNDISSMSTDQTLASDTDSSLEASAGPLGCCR

CC(C)C[C@H](NC(=O)[C@H](CC(N)=O)NC(=O)[C@H](CC(C)C)NC(=O)[C@@H](NC(=O)[C@@H](C)NC(=O)[C@@H]1CCCN1C(=O)[C@H](CCCNC(=N)N)NC(=O)[C@@H](CCCCN)NC(=O)[C@@H]1CCCN1C(=O)[C@H](CCCNC(=N)N)NC(=O)[C@@H](CCCNC(=N)N)NC(=O)[C@H](CCCNC(=N)N)NC(=O)[C@H](CCCNC(=N)N)NC(=O)[C@H](CCC(N)=O)NC(=O)[C@@H](CCCNC(=N)N)NC(=O)[C@H](CCCNC(=N)N)NC(=O)[C@H](CCCCN)NC(=O)[C@H](CCCCN)NC(=O)[C@H](N)CCCNC(=N)N)[C@@H](C)O)C(=O)N[C@H](Cc1ccccc1)C(N)=O [SEQ ID NO: 172, rKKRrQRRrRPkRPaTLNLf] (H-[dR]KKR[dR]QRR[dR]RP[dK]RP[dA]TLNL[dF]-NH2; N-terminus assumed)
IC50 [1]: 102 nM | LPS-induced IL6 release ([2]; LPS added for 6 h): higher potency than D-TAT-IB1 (SEQ ID NO: 197), dTAT (SEQ ID NO: 45) and SP 600125; also recorded: higher potency than D-TAT-IB1 (SEQ ID NO: 197) and L-TAT-IB1 (SEQ ID NO: 196) | LPS-induced TNFα release ([2]; PMA/THP1 differentiated macrophages, LPS): higher potency than D-TAT-IB1 (SEQ ID NO: 197), dTAT (SEQ ID NO: 45) and SP 600125; also recorded: higher potency than D-TAT-IB1 (SEQ ID NO: 197) and L-TAT-IB1 (SEQ ID NO: 196) | LPS-induced cytokine and chemokine release ([2]; THP1-PMA-differentiated macrophages, TNF, IL 6, MCP1, 6 h LPS): blocks LPS-induced cytokine and chemokine release | PHA-L-induced IL-2 release [3]: did reduce the PHA-L-induced IL-2 release in a dose-dependent manner | PHA-L-induced TNF-α release [3]: did reduce the PHA-L-induced TNF-α release in a dose-dependent manner
